Our source for the IC50 and Kp values is patent US7772235B2, “mGluR5 modulators” (Astrazeneca AB, priority 2006, dated 2010).

Values joined by “and” are separate entries in the source; they are usually repeats but may differ in a detail not shown here. Identical values can stand only once. A value given as a limit tells only on which side of the number the result lay.

T1 sequence (P41594 21-942 isoform P41594-3 limits assumed): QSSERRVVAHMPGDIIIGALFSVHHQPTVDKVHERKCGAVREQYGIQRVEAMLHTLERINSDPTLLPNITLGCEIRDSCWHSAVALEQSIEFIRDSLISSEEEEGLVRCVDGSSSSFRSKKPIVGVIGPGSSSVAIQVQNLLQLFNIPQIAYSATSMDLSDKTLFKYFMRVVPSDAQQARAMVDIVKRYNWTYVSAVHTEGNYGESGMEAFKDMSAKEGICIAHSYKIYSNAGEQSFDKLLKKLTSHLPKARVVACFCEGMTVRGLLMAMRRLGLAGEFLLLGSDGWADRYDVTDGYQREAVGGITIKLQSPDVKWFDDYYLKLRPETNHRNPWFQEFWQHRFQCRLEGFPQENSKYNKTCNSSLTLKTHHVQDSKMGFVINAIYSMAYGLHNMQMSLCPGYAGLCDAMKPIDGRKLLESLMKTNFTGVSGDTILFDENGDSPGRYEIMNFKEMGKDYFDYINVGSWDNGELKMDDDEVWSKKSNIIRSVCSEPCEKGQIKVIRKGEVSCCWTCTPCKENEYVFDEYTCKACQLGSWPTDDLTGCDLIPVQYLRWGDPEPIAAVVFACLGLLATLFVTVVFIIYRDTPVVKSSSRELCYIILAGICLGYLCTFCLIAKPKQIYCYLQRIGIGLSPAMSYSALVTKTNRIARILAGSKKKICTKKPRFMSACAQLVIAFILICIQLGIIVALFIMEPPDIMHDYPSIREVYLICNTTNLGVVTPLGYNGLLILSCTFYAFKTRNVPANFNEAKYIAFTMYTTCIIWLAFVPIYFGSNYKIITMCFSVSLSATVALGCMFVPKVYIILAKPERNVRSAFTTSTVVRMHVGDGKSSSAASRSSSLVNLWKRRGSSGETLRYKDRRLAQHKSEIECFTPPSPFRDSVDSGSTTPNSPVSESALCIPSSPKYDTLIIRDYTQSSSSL

One data set concerns the target T1, human mGluR5d (Homo sapiens, UniProt P41594).
T1 construct: expressed in transfected cells
Nature of the data set: FLIPR assay of mGluR5 antagonism (intracellular calcium mobilization). Format: cell-based. To be noted: cells expressing human mGluR5d. From the text:
The properties of the compounds of the invention can be analyzed using standard assays for pharmacological activity. Examples of glutamate receptor assays are well known in the art as described in for example Aramori et al., Neuron 8:757 (1992), Tanabe et al., Neuron 8:169 (1992), Miller et al., J. Neuroscience 15: 6103 (1995), Balazs, et al., J. Neurochemistry 69:151 (1997). The methodology described in these publications is incorporated herein by reference. Conveniently, the compounds of the invention can be studied by means of an assay (FLIPR) that measures the mobilization of intracellular calcium, [Ca^2+]i in cells expressing mGluR5 or another assay (IP3) that measures inositol phosphate turnover.
Cells expressing human mGluR5d as described in WO97/05252 are seeded at a density of 100,000 cells per well on collagen coated clear bottom 96-well plates with black sides and experiments are done 24 h following seeding. All assays are done in a buffer containing 127 mM NaCl, 5 mM KCl, 2 mM MgCl2, 0.7 mM NaH2PO4, 2 mM CaCl2, 0.422 mg/mL NaHCO3, 2.4 mg/mL HEPES, 1.8 mg/mL glucose and 1 mg/mL BSA Fraction IV (pH 7.4). Cell cultures in the 96-well plates are loaded for 60 minutes in the above mentioned buffer containing 4 μM of the acetoxymethyl ester form of the fluorescent calcium indicator fluo-3 (Molecular Probes, Eugene, Oreg.) in 0.01% pluronic acid (a proprietary, non-ionic surfactant polyol—CAS Number 9003-11-6). Following the loading period the fluo-3 buffer is removed and replaced with fresh assay buffer. FLIPR experiments are done using a laser setting of 0.800 W and a 0.4 second CCD camera shutter speed with excitation and emission wavelengths of 488 nm and 562 nm, respectively. Each experiment is initiated with 160 μl of buffer present in each well of the cell plate. A 40 μl addition from the antagonist plate was followed by a 50 μL addition from the agonist plate. A 30 minute interval separates the antagonist and agonist additions. The fluorescence signal is sampled 50 times at 1 second intervals followed by 3 samples at 5 second intervals immediately after each of the two additions. Responses are measured as the difference between the peak height of the response to agonist, less the background fluorescence within the sample period. IC50 determinations are made using a linear least squares fitting program.
(In general: A change in cytosolic calcium serves as a functional read-out for many receptors and channels.)
As to `C[C@@H](Oc1nnc(-c2ccn(C)c(=O)c2)n1C)c1cc(-c2cccc(Cl)c2)on1` [Example 36.1, 4-(5-{(1R)-1-[5-(3-Chlorophenyl)isoxazol-3-yl]ethoxy}-4-methyl-4H-1,2,4-triazol-3-yl)-1-methylpyridin-2(1H)-one], the IC50 (in general, the concentration that gives 50% inhibition) stood at 19 nM. For `C[C@@H](Oc1nnc(-c2ccn(C)c(=O)c2)n1C)c1noc(-c2cccc(Cl)c2)n1` [Example 36.2, 4-(5-{(1R)-1-[5-(3-Chlorophenyl)-1,2,4-oxadiazol-3-yl]ethoxy}-4-methyl-4H-1,2,4-triazol-3-yl)-1-methylpyridin-2(1H)-one], the half-maximal inhibitory concentration (IC50) was 20 nM. Still for that read-out and setting: the value for `Cn1c(OCc2cc(-c3cccc(Cl)c3)on2)nnc1-c1cc[nH]c(=O)c1` [Example 37.2, 4-(5-{[5-(3-chlorophenyl)isoxazol-3-yl]methoxy}-4-methyl-4H-1,2,4-triazol-3-yl)pyridin-2(1H)-one] was > 3000 nM and 1580 nM; that for `C[C@@H](Oc1nnc(-c2cc[nH]c(=O)c2)n1C)c1cc(-c2cccc(Cl)c2)on1` [Example 37.3, 4-(5-{(1R)-1-[5-(3-Chlorophenyl)isoxazol-3-yl]ethoxy}-4-methyl-4H-1,2,4-triazol-3-yl)pyridin-2(1H)-one] was 10 nM; that for `C[C@@H](Oc1nnc(-c2cc[nH]c(=O)c2)n1C)c1noc(-c2cccc(Cl)c2)n1` [Example 38.1, 4-(5-{(R)-1-[5-(3-Chloro-phenyl)-[1,2,4]oxadiazol-3-yl]-ethoxy}-4-methyl-4H-[1,2,4]triazol-3-yl)-1H-pyridin-2-one] was 13 nM. Still for that read-out and setting: the value for `C[C@@H](Oc1nnc(-c2cc[nH]c(=O)c2)n1C)c1nnn(-c2cccc(Cl)c2)n1` [Example 38.2, 4-(5-{(1R)-1-[2-(3-Chlorophenyl)-2H-tetrazol-5-yl]ethoxy}-4-methyl-4H-1,2,4-triazol-3-yl)pyridin-2(1H)-one] was 9 nM; that for `C[C@@H](Oc1nnc(-c2cn[nH]c(=O)c2)n1C)c1nnn(-c2cccc(Cl)c2)n1` [Example 38.3, 5-(5-{(1R)-1-[2-(3-Chlorophenyl)-2H-tetrazol-5-yl]ethoxy}-4-methyl-4H-1,2,4-triazol-3-yl)pyridazin-3(2H)-one] was 6 nM. The same measure, in the same setting: the value for `C[C@@H](Oc1nnc(-c2cn[nH]c(=O)c2)n1C)c1noc(-c2cccc(Cl)c2)n1` [Example 38.4, 5-(5-{(1R)-1-[5-(3-Chlorophenyl)-1,2,4-oxadiazol-3-yl]ethoxy}-4-methyl-4H-1,2,4-triazol-3-yl)pyridazin-3(2H)-one] was 15 nM; that for `C[C@@H](Oc1nnc(-c2cn[nH]c(=O)c2)n1C)c1cc(-c2cccc(Cl)c2)on1` [Example 38.5, 5-(5-{(1R)-1-[5-(3-Chlorophenyl)isoxazol-3-yl]ethoxy}-4-methyl-4H-1,2,4-triazol-3-yl)pyridazin-3(2H)-one] was 8 nM.

With `Cc1cccc(-n2nnc([C@@H](C)Oc3nnc(-c4cn[nH]c(=O)c4)n3C)n2)c1` [Example 38.6, 5-(4-Methyl-5-{(1R)-1-[2-(3-methylphenyl)-2H-tetrazol-5-yl]ethoxy}-4H-1,2,4-triazol-3-yl)pyridazin-3(2H)-one], the IC50 stood at 7 nM. With `Cc1cccc(-c2cc([C@@H](C)Oc3nnc(-c4cn[nH]c(=O)c4)n3C)no2)c1` [Example 38.7, 5-(4-Methyl-5-{(1R)-1-[5-(3-methylphenyl)isoxazol-3-yl]ethoxy}-4H-1,2,4-triazol-3-yl)pyridazin-3(2H)-one], the IC50 worked out at 12 nM.

System in the next data set: not listed separately
The data set is described as follows: Determination of brain to plasma ratio (B/P ratio) in rat. Format: in vivo, female Sprague Dawley rats. To be noted: female, Sprague-Dawley, read-out: B/P Ratio (drug in brain over drug in plasma). How it is done: Brain to plasma ratios are estimated in female Sprague Dawley rats. The compound is dissolved in water or another appropriate vehicle. For determination of brain to plasma ratio the compound is administrated as a subcutaneous, or an intravenous bolus injection, or an intravenous infusion, or an oral administration. At a predetermined time point after the administration a blood sample is taken with cardiac puncture. The rat is terminated by cutting the heart open, and the brain is immediately retained. The blood samples are collected in heparinized tubes and centrifuged within 30 minutes, in order to separate the plasma from the blood cells. The plasma is transferred to 96-well plates and stored at −20° C. until analysis. The brains are divided in half, and each half is placed in a pre-tarred tube and stored at −20° C. until analysis. Prior to the analysis, the brain samples are thawed and 3 mL/g brain tissue of distilled water is added to the tubes. The brain samples are sonicated in an ice bath until the samples are homogenized. Both brain and plasma samples are precipitated with acetonitrile. After centrifugation, the supernatant is diluted with 0.2% formic acid. […] After reconstitution of the residuals the samples are ready for injection onto the HPLC column.
With `C[C@@H](Oc1nnc(-c2cc[nH]c(=O)c2)n1C)c1cc(-c2cccc(Cl)c2)on1` [Example 37.3, 4-(5-{(1R)-1-[5-(3-Chlorophenyl)isoxazol-3-yl]ethoxy}-4-methyl-4H-1,2,4-triazol-3-yl)pyridin-2(1H)-one], the Kp worked out at 0.02. Same read-out and setting: the value for `C[C@@H](Oc1nnc(-c2ccncc2)n1C)c1cc(-c2cccc(Cl)c2)on1` [reference compound] was 0.8.
